Test results reported in patent US11197863B2, “Inhibitors of polo-like kinase 4 (PLK4) for treating pediatric embryonal tumors” (ANN AND ROBERT H. LURIE CHILDREN'S HOSPITAL OF CHICAGO, priority 2017, dated 2021).

How the values were obtained:
breast cancer cells = settings: Sampson et al.; cited from earlier work
[1] = system: AURKA or other PLK family members; settings: cited from earlier work
DAOY MB cells = assay: Confluency assay (IncuCyte ZOOM); format: cell-based, human; settings: increasing concentrations, 48 hour period, p-value=0.029
Description: For further evaluation of the effect of the PLK4 inhibitor over tumor cell proliferation, confluency was measured over a 48 hour period. MON, BT-12, G401 and DAOY cells were plated in 96-well plates with a density of 6×10^4 per well. […] Confluency was monitored for 48 hours by taking phase contrast images every 2 hours and measured using an IncuCyte ZOOM system (Essen BioScience, USA). Experiments were performed in triplicates.

Q: Which “effect on breast cancer cells” value (breast cancer cells) does the source give for `COc1ccc2c(c1)[C@]1(C[C@H]1c1ccc3c(/C=C/c4ccc(CN5C[C@@H](C)O[C@@H](C)C5)cc4)n[nH]c3c1)C(=O)N2` [CFI-400945] here?
A: cell death

Q: What about the “inhibition of AURKA or other PLK family members” value [1] of the same compound?
A: no significant inhibition

Q: And the “delay in reaching confluency (FC)” value (DAOY MB cells)?
A: 1.70
